Tested on: EMT-6 mammary tumors
Test: Biodistribution in EMT-6 BALB/C mice
Format: in vivo
Protocol: As used herein, the term “tumor:background ratio” (i.e., tumor:fat ratio, tumor:muscle ratio, tumor:lung ratio, tumor:blood ratio) refers to the % injected dose/g tissue of the radiotracer in the tumor divided by the % injected dose/g […] in the background tissue (i.e., fat, muscle, lung, blood).
B. Biodistribution Studies of ^11C analogs in Tumor-Bearing Mice. Biodistribution studies were conducted in mature Balb/c mice that were implanted with EMT-6 mammary tumors identified herein as EMT-6 BALB/C mice to create laboratory tumor-bearing mice. The mice were implanted in the scapular region seven days prior to the study. Animals were injected with 100-150 μCi of the ^11C-labeled radiotracer and the animals were sacrificed at 5, 30, and 60 min post-i.v. injection of the radiotracer.
A series of biodistribution studies in tumor-bearing mice were also conducted with [^76Br]8, [^76Br]6, [^125I]8i, and [^125I]6i.

SMILES: COc1cc2c(cc1OC)CN(CCCCNC(=O)c1cc(Br)cc(OC)c1O[11CH3])CC2 [[^11C]6]
- ratio Tumor:blood (5 min): 0.40 ± 0.01
- ratio Tumor:fat (5 min): 1.82 ± 0.45
- ratio Tumor:heart (5 min): 0.80 ± 0.07
- ratio Tumor:lung (5 min): 0.47 ± 0.04
- ratio Tumor:muscle (5 min): 1.46 ± 0.19
- ratio Tumor:blood (30 min): 0.94 ± 0.05
- ratio Tumor:fat (30 min): 2.05 ± 0.57
- ratio Tumor:heart (30 min): 1.36 ± 0.12
- ratio Tumor:lung (30 min): 0.69 ± 0.08
- ratio Tumor:muscle (30 min): 0.59 ± 0.05
- ratio Tumor:blood (1 hour): 1.10 ± 0.11
- ratio Tumor:fat (1 hour): 2.77 ± 0.82
- ratio Tumor:heart (1 hour): 1.86 ± 0.64
- ratio Tumor:lung (1 hour): 0.79 ± 0.30
- ratio Tumor:muscle (1 hour): 1.84 ± 0.25
- % ID per gram blood (5 min): 7.12 ± 1.01 % ID per gram
- % ID per gram blood (30 min): 0.99 ± 0.15 % ID per gram
- % ID per gram blood (1 hour): 0.45 ± 0.04 % ID per gram
- % ID per gram brain (5 min): 0.33 ± 0.09 % ID per gram
- % ID per gram brain (30 min): 0.10 ± 0.00 % ID per gram
- % ID per gram brain (1 hour): 0.03 ± 0.00 % ID per gram
- % ID per gram fat (5 min): 1.66 ± 0.41 % ID per gram
- % ID per gram fat (30 min): 0.46 ± 0.19 % ID per gram
- % ID per gram fat (1 hour): 0.20 ± 0.08 % ID per gram
- % ID per gram heart (5 min): 3.54 ± 0.31 % ID per gram
- % ID per gram heart (30 min): 0.68 ± 0.12 % ID per gram
- % ID per gram heart (1 hour): 0.29 ± 0.10 % ID per gram
- % ID per gram kidney (5 min): 19.48 ± 1.46 % ID per gram
- % ID per gram kidney (30 min): 2.57 ± 0.78 % ID per gram
- % ID per gram kidney (1 hour): 1.34 ± 0.19 % ID per gram
- % ID per gram liver (5 min): 25.02 ± 3.70 % ID per gram
- % ID per gram liver (30 min): 2.48 ± 0.52 % ID per gram
- % ID per gram liver (1 hour): 1.19 ± 0.17 % ID per gram
- % ID per gram lung (5 min): 6.01 ± 0.77 % ID per gram
- % ID per gram lung (30 min): 1.34 ± 0.23 % ID per gram
- % ID per gram lung (1 hour): 0.70 ± 0.26 % ID per gram
- % ID per gram muscle (5 min): 1.94 ± 0.13 % ID per gram
- % ID per gram muscle (30 min): 1.67 ± 0.14 % ID per gram
- % ID per gram muscle (1 hour): 0.26 ± 0.07 % ID per gram
- % ID per gram tumor (5 min): 2.82 ± 0.36 % ID per gram
- % ID per gram tumor (30 min): 0.92 ± 0.10 % ID per gram
- % ID per gram tumor (1 hour): 0.50 ± 0.09 % ID per gram

SMILES: COc1cc2c(cc1OC)CN(CCNC(=O)c1cc([125I])ccc1OC)CC2 [[^125I]8i]
- ratio Tumor:blood (5 min): 0.42 ± 0.03
- ratio Tumor:fat (5 min): 0.84 ± 0.06
- ratio Tumor:heart (5 min): 1.04 ± 0.08
- ratio Tumor:lung (5 min): 0.50 ± 0.07
- ratio Tumor:muscle (5 min): 2.00 ± 0.37
- ratio Tumor:blood (30 min): 0.57 ± 0.12
- ratio Tumor:fat (30 min): 1.49 ± 0.65
- ratio Tumor:heart (30 min): 1.44 ± 0.18
- ratio Tumor:lung (30 min): 0.98 ± 0.16
- ratio Tumor:muscle (30 min): 2.06 ± 0.69
- ratio Tumor:blood (1 hour): 0.62 ± 0.09
- ratio Tumor:fat (1 hour): 1.93 ± 1.87
- ratio Tumor:heart (1 hour): 1.81 ± 0.32
- ratio Tumor:lung (1 hour): 0.91 ± 0.24
- ratio Tumor:muscle (1 hour): 2.14 ± 0.99
- ratio Tumor:blood (2 hour): 0.26 ± 0.08
- ratio Tumor:fat (2 hour): 2.44 ± 0.77
- ratio Tumor:heart (2 hour): 1.00 ± 0.27
- ratio Tumor:lung (2 hour): 0.67 ± 0.14
- ratio Tumor:muscle (2 hour): 2.17 ± 0.23
- % ID per gram blood (5 min): 6.90 ± 1.29 % ID per gram
- % ID per gram blood (30 min): 2.44 ± 0.65 % ID per gram
- % ID per gram blood (1 hour): 1.17 ± 0.29 % ID per gram
- % ID per gram blood (2 hour): 3.37 ± 1.23 % ID per gram
- % ID per gram brain (5 min): 1.42 ± 0.33 % ID per gram
- % ID per gram brain (30 min): 0.20 ± 0.06 % ID per gram
- % ID per gram brain (1 hour): 0.06 ± 0.02 % ID per gram
- % ID per gram brain (2 hour): 0.09 ± 0.03 % ID per gram
- % ID per gram fat (5 min): 3.46 ± 0.59 % ID per gram
- % ID per gram fat (30 min): 1.03 ± 0.44 % ID per gram
- % ID per gram fat (1 hour): 0.77 ± 0.66 % ID per gram
- % ID per gram fat (2 hour): 0.37 ± 0.13 % ID per gram
- % ID per gram heart (5 min): 2.79 ± 0.35 % ID per gram
- % ID per gram heart (30 min): 0.94 ± 0.19 % ID per gram
- % ID per gram heart (1 hour): 0.40 ± 0.02 % ID per gram
- % ID per gram heart (2 hour): 0.86 ± 0.26 % ID per gram
- % ID per gram kidney (5 min): 54.77 ± 8.42 % ID per gram
- % ID per gram kidney (30 min): 38.59 ± 2.05 % ID per gram
- % ID per gram kidney (1 hour): 18.07 ± 2.07 % ID per gram
- % ID per gram kidney (2 hour): 8.46 ± 1.26 % ID per gram
- % ID per gram liver (5 min): 41.37 ± 7.23 % ID per gram
- % ID per gram liver (30 min): 8.20 ± 1.05 % ID per gram
- % ID per gram liver (1 hour): 2.87 ± 0.34 % ID per gram
- % ID per gram liver (2 hour): 3.47 ± 1.05 % ID per gram
- % ID per gram lung (5 min): 5.95 ± 1.30 % ID per gram
- % ID per gram lung (30 min): 1.39 ± 0.29 % ID per gram
- % ID per gram lung (1 hour): 0.81 ± 0.20 % ID per gram
- % ID per gram lung (2 hour): 1.27 ± 0.37 % ID per gram
- % ID per gram muscle (5 min): 1.47 ± 0.20 % ID per gram
- % ID per gram muscle (30 min): 0.70 ± 0.25 % ID per gram
- % ID per gram muscle (1 hour): 0.37 ± 0.23 % ID per gram
- % ID per gram muscle (2 hour): 0.38 ± 0.06 % ID per gram
- % ID per gram tumor (5 min): 2.91 ± 0.40 % ID per gram
- % ID per gram tumor (30 min): 1.33 ± 0.13 % ID per gram
- % ID per gram tumor (1 hour): 0.71 ± 0.12 % ID per gram
- % ID per gram tumor (2 hour): 0.82 ± 0.09 % ID per gram

SMILES: COc1cc2c(cc1OC)CN(CCNC(=O)c1cc(C)ccc1O[11CH3])CC2 [[^11C]9]
- % ID per gram blood (5 min): 5.89 ± 0.29 % ID per gram
- % ID per gram blood (30 min): 2.62 ± 0.22 % ID per gram
- % ID per gram blood (1 hour): 1.98 ± 0.35 % ID per gram
- % ID per gram brain (5 min): 1.63 ± 0.30 % ID per gram
- % ID per gram brain (30 min): 0.11 ± 0.01 % ID per gram
- % ID per gram brain (1 hour): 0.10 ± 0.04 % ID per gram
- % ID per gram fat (5 min): 3.07 ± 0.40 % ID per gram
- % ID per gram fat (30 min): 0.38 ± 0.12 % ID per gram
- % ID per gram fat (1 hour): 0.26 ± 0.09 % ID per gram
- % ID per gram heart (5 min): 2.89 ± 0.36 % ID per gram
- % ID per gram heart (30 min): 0.76 ± 0.06 % ID per gram
- % ID per gram heart (1 hour): 0.76 ± 0.46 % ID per gram
- % ID per gram kidney (5 min): 44.07 ± 1.67 % ID per gram
- % ID per gram kidney (30 min): 2.77 ± 0.42 % ID per gram
- % ID per gram kidney (1 hour): 1.01 ± 0.12 % ID per gram
- % ID per gram liver (5 min): 18.49 ± 2.87 % ID per gram
- % ID per gram liver (30 min): 3.87 ± 0.67 % ID per gram
- % ID per gram liver (1 hour): 1.70 ± 0.23 % ID per gram
- % ID per gram lung (5 min): 5.69 ± 0.70 % ID per gram
- % ID per gram lung (30 min): 1.42 ± 0.15 % ID per gram
- % ID per gram lung (1 hour): 1.39 ± 0.67 % ID per gram
- % ID per gram muscle (5 min): 1.75 ± 0.21 % ID per gram
- % ID per gram muscle (30 min): 0.56 ± 0.19 % ID per gram
- % ID per gram muscle (1 hour): 0.41 ± 0.22 % ID per gram
- % ID per gram tumor (5 min): 3.10 ± 0.25 % ID per gram
- % ID per gram tumor (30 min): 1.08 ± 0.08 % ID per gram
- % ID per gram tumor (1 hour): 0.85 ± 0.14 % ID per gram

From patent US7893266B2, “Detection of cancer cells in vitro using sigma-2 receptor ligands as radiotracers” (Washington University, priority 2003, dated 2011)
